Measurements published in PMC10671074, “Tumor Regression upon Intratumoral and Subcutaneous Dosing of the STING Agonist ALG-031048 in Mouse Efficacy Models” (International Journal of Molecular Sciences, 2023).
Read-outs that look alike come from different tables or passages of the source. Marks after values point to notes of the source that are not given here.

Legend:
[1] = tested on: HEK 293 cells lacking functional STING; experiment: HEK 293 STING Dual Null IRF reporter assay
Experimental: (§1) Assays were set up after allowing cells to adhere for 48 h. Compounds dissolved in water were serially diluted in dosing buffer containing 10 µg/mL of digitonin (MP Biomedicals, Solon, OH, USA). Media were aspirated from the cells, and 50 µL of buffer with compound was added in triplicate. […] The next day, 20 µL of media was transferred to two new plates, and either 50 µL of QuantiLuc™ (Invivogen) to measure IFN-β expression or 80 µL of QuantiBlue™ (Invivogen) to measure IRF activity were added. […] An aliquot of 100 µL of CellTiter-Glo® (Promega, Madison, WI, USA) was added to the original plate still containing the cells, and luminescence was determined to measure viability. All readouts were measured on an Envision plate reader from Perkin Elmer. Data were analyzed using GraphPad™ Prism’s version 8.0 [Agonist] vs. response—variable slope (four parameters) model.
(§2) with increasing concentrations of the STING agonists or IFN‐β. After 24 hours, IRF reporter activity

subcutaneous CT26 tumors [2] = conditions: for Delay of tumor growth compared with vehicle / Delayed Response (TV > 10 and <2000 mm^3) / Treatment Failure (TV > 2000 mm^3) / Complete Response (TV < 10 mm^3) / Median Time to Endpoint: 3 × q3d; for Median Time to Endpoint: vehicle 17.0
Experimental: (§3) Each mouse was inoculated subcutaneously in the right flank with 3 × 10^5 CT26 cells (in 0.1 mL PBS) for tumor development.
(§4) PBS was used as the vehicle control. […] Vehicles and test compounds were administered IT q3d × 3 in a volume of 0.05 mL. SC administration was performed between the shoulder blades at a dosing volume of 10 mL/kg. Tumors were measured twice a week in two dimensions using calipers, and volume was calculated using Formula (1):Tumor Volume (mm^3) = 0.5 (w^2 × l)(1)
(§5) Here, w = width and l = length, in mm, of a tumor.
(§6) Tumor weight was estimated with the assumption that 1 mg is equivalent to 1 mm^3 of tumor volume.
(§7) Animals were euthanized when (1) their tumor reached the endpoint volume of 2000 mm^3, (2) their body weight loss exceeded 30%, or (3) on the last day of the study, whichever came first. The TTE for analysis was calculated for each mouse by the following Equation (2):TTE = (log10 (endpoint volume) − b)/m(2)
(§8) TTE is expressed in days, endpoint volume is expressed in mm^3, b is the intercept, and m is the slope of the line obtained via linear regression of a log-transformed tumor growth data set. […] Animals were weighed on Days 1–5, then twice weekly for the duration of the study.

[3] = tested on: primary human immature dendritic cells; experiment: Activation of primary human immature dendritic cells (CD83/CD86 flow cytometry); format: cell-based; conditions: for EC50: Homo sapiens, Dendritic cell, iDCs, 72 h after stimulation
Source text: Frozen human PBMCs (100 × 10^6 cells) were obtained from Stem Cell Technologies (Kent, WA, USA). Monocytes were purified from PBMCs using a CD14^+ pan-monocyte-negative isolation kit and an LS column (Miltenyi Biotec, Bergisch Gladbach, Germany). Magnetically labeled non-target cells were depleted by retaining them within a MACS column in the magnetic field of a MACS Separator, while highly purified unlabeled CD1 D16^− cells were collected and used to generate dendritic cells. To obtain immature monocyte-derived dendritic cells (iMDDCs), enriched monocytes were cultured in Mo-DC differentiation medium (Miltenyi Biotec) supplemented with human IL-4 (250 IU/mL, Miltenyi Biotec) and human GM-CSF (800 IU/mL, Miltenyi Biotec) at 37 °C in a T-150 flask in a 5% CO2 humidified incubator for 5 days; fresh media was replenished every 2–3 days.
[…] An aliquot of iMDDCs was also cultured in maturation media for 24–48 h and used as a control containing RPMI 1640, 10% FBS, 2 mM L-glutamine, and human TNF-α (6000 IU/mL, Miltenyi Biotec). The supernatant from the plate was frozen to assess cytokine production, and cells were analyzed via flow cytometry.
Cells were incubated with phosphate-buffered saline (PBS) containing 2% FBS and 2 mM of EDTA (FACS buffer) supplemented with 2 mg/mL of normal human IgG on ice for 15 min to block Fc receptors. The cell suspension was then incubated with a predetermined optimal concentration of the appropriate fluorescent dye-labeled monoclonal antibodies (mAbs) against human cell surface markers on ice for 30 min. The fluorescent dye-labeled mAbs against human cell surface molecules included anti-CD209, anti-CD14, anti-CD11c, anti-CD40, anti-HLA-DR, anti-CD86, and anti-CD83 (BD Biosciences, Franklin Lakes, NJ, USA or BioLegend, San Diego, CA, USA). In addition, a fixable live/dead stain (Thermo Fisher Scientific) at a dilution of 1:1000 was added to exclude dead cells. After several washes with FACS buffer, cells were resuspended in FACS buffer and analyzed on an Attune Nxt flow cytometer (Thermo Fisher Scientific) with FlowJo v10 software (BD Biosciences). An aliquot of the cells to be analyzed served as controls by using “fluorescent minus-one” to establish gates and determine the frequency of positively stained cells. Ultra-comp beads (Thermo Fisher Scientific) were used as single-stained controls to set up compensation on the flow cytometer.

subcutaneous CT26 tumors [4] = experiment: CT26 mouse colon carcinoma model
Experimental: as §3, §4, §5, §6, §7, §8

[5] = tested on: phosphodiesterase I from Crotalus adamanteus venom (SVPD); experiment: in vitro; conditions: pH 8
HEK 293 reporter cells = experiment: Cell viability of HEK 293 reporter cells (CellTiter-Glo); conditions: concentrations up to 1000 nM
Experimental: as §1, §2

ENPP1 = biological target: T1, ENPP1 (Homo sapiens, UniProt P22413); experiment: ENPP1 stability assay; format: in vitro ADME; conditions: pH 9.5; 100 μM STING agonist, 26.5 nM recombinant human ENPP1, 37 °C, up to 2 h; read-out: ENPP1 t½
T1 construct: purchased R&D Systems
T1 sequence (P22413 1-925): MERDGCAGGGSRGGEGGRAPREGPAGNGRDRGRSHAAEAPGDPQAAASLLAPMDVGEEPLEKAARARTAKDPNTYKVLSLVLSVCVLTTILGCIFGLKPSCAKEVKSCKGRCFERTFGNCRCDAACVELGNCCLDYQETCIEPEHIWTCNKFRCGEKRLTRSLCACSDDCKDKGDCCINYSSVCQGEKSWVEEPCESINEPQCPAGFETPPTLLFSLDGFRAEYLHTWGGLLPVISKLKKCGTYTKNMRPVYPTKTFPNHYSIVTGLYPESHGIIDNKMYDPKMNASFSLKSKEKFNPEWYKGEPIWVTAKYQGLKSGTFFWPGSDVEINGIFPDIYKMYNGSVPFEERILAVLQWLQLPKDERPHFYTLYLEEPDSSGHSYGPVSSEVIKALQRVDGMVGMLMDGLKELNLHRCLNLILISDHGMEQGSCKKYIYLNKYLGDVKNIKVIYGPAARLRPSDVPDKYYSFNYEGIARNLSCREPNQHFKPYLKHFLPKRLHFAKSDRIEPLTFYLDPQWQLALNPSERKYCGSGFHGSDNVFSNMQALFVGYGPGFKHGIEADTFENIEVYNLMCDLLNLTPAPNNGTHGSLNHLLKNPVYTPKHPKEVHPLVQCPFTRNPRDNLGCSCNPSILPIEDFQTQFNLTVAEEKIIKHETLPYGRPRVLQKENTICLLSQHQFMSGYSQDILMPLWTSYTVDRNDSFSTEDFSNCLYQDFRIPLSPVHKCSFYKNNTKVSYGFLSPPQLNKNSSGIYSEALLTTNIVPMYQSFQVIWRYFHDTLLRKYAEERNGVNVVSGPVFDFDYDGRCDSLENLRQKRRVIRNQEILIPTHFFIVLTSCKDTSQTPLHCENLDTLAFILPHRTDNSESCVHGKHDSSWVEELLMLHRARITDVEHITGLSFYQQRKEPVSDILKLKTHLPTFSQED

[6] = Table 2 study, 25 μg IT, n = 10
[7] = Table 2 study, 100 μg IT, n = 10
[8] = Table 3/4 study, 25 μg IT, n = 10

CO[C@H]1[C@H]2OP(=O)(O)OC[C@@]34C[C@@H]3[C@@H](n3cnc5c(N)ncnc53)[C@H](O)[C@@H]4O[P@](=O)(S)OC[C@H]1O[C@H]2n1cnc2c(=O)[nH]c(N)nc21 [ALG-031048]
STING dependence of cellular activation (IRF reporter) ([1]; HEK 293 R232 cells vs control cells lacking STING expression, 24 hours): dependent on the expression of STING | EC50 ([1]; Homo sapiens, HEK293, read-out: Reporter Cell Assay EC50, STING Dual Null IRF): > 100 µM | Delay of tumor growth compared with vehicle (subcutaneous CT26 tumors [2]; CT26, 1 mg/kg SC): 4.0 days | Delay of tumor growth compared with vehicle (subcutaneous CT26 tumors [2]; CT26, 4 mg/kg SC): 21.0 days | Time mice remained tumor-free after the last dose (subcutaneous CT26 tumors [2]; CT26, longest observation in any study): approximately 2.5 months | Complete tumor suppression, initial CT26 tumor (subcutaneous CT26 tumors [2]; Figure 5B study, three IT doses of 100 μg): 100% | Delayed Response (TV > 10 and <2000 mm^3) (subcutaneous CT26 tumors [2]; [6]): 10% ^c | Treatment Failure (TV > 2000 mm^3) (subcutaneous CT26 tumors [2]; [6]): 44% ^c | Delayed Response (TV > 10 and <2000 mm^3) (subcutaneous CT26 tumors [2]; [7]): 0% | Treatment Failure (TV > 2000 mm^3) (subcutaneous CT26 tumors [2]; [7]): 10% | Complete Response (TV < 10 mm^3) (subcutaneous CT26 tumors [2]; [8]): 0% | Delayed Response (TV > 10 and <2000 mm^3) (subcutaneous CT26 tumors [2]; [8]): 0% | Treatment Failure (TV > 2000 mm^3) (subcutaneous CT26 tumors [2]; [8]): 100% | TV at end of study of animal with delayed response (subcutaneous CT26 tumors [2]; Table 4 study, 100 μg IT): 18 mm^3 | Delayed Response (TV > 10 and <2000 mm^3) (subcutaneous CT26 tumors [2]; Table 4 study, 100 μg IT): 10% ^b | Treatment Failure (TV > 2000 mm^3) (subcutaneous CT26 tumors [2]; Table 4 study, 100 μg IT): 50% | Complete Response (TV < 10 mm^3) (subcutaneous CT26 tumors [2]; Table 4 study, 100 μg IT, n = 10): 40% | Median Time to Endpoint (subcutaneous CT26 tumors [2]; Table 4 study, 100 μg IT): 38.0 days | Delayed Response (TV > 10 and <2000 mm^3) (subcutaneous CT26 tumors [2]; Table 4 study, 1 mg/kg SC): 0% | Treatment Failure (TV > 2000 mm^3) (subcutaneous CT26 tumors [2]; Table 4 study, 1 mg/kg SC): 100% | Complete Response (TV < 10 mm^3) (subcutaneous CT26 tumors [2]; Table 4 study, 1 mg/kg SC, n = 10): 0% | Median Time to Endpoint (subcutaneous CT26 tumors [2]; Table 4 study, 1 mg/kg SC): 21.0 days | TV at end of study of animal with delayed response (subcutaneous CT26 tumors [2]; Table 4 study, 4 mg/kg SC): 1568 mm^3 | Delayed Response (TV > 10 and <2000 mm^3) (subcutaneous CT26 tumors [2]; Table 4 study, 4 mg/kg SC): 10% ^a | Treatment Failure (TV > 2000 mm^3) (subcutaneous CT26 tumors [2]; Table 4 study, 4 mg/kg SC): 80% | Complete Response (TV < 10 mm^3) (subcutaneous CT26 tumors [2]; Table 4 study, 4 mg/kg SC, n = 10): 10% | Median Time to Endpoint (subcutaneous CT26 tumors [2]; Table 4 study, 4 mg/kg SC): 35.0 days | EC50 ([3]; read-out: EC50 CD83, Immature Dendritic Cells): 5.3 µM | EC50 ([3]; read-out: EC50 CD86, Immature Dendritic Cells): 17.8 µM | Surface expression of CD86 and CD83 (in words) ([3]; iDCs and, to a lesser degree, monocytes, 24 and 72 h): upregulated the surface expression of CD86 and CD83 | Animals with complete response (TV < 10 mm^3) at end of study (subcutaneous CT26 tumors [4]; CT26, 4 mg/kg SC, 3 × q3d): one | Animals with tumors regressed and undetectable at end of study (subcutaneous CT26 tumors [4]; Table 2 study, 100 μg IT, three doses): 9 of 10 | remaining at 24 h [5]: 100% | Cell viability of HEK 293 reporter cells (HEK 293 reporter cells): did not cause any loss of cell viability | half-life at 100 μM (ENPP1): > 2 h
